From publication PMC3787887 (International Journal of Oncology, 2013)
Several values for one entry are separate records, joined by “and”; a condition that tells them apart may be missing. Equal values may be shown once.

Legend:
A549 cells [1] = experiment: Cellular uptake of PS, A549; assay type: cell-based, human; conditions: 1 h; for increase in the intracellular accumulation of PS by transporter inhibitor: co-incubation with 100 μM PS
SW480 cells = experiment: Cellular uptake of PS, SW480; assay type: cell-based, human; conditions: 1 h; for enhancement of the cellular accumulation of PS by transporter inhibitor: co-incubation with 100 μM PS
A549 cells [2] = experiment: Cell growth inhibition; assay type: cell-based, human; conditions: PS 80 μM 24 h, curcumin 100 μM pretreatment
A549 cells [3] = experiment: Apoptotic cell death analysis; assay type: cell-based, human; conditions: 20-h incubation
A549 xenografts = experiment: A549 subcutaneous xenografts in nude mice; assay type: in vivo; conditions: for inhibition of human lung cancer xenografts (abstract, measure not named): PS 200 mg/kg, curcumin 500 mg/kg, oral gavage; for tumor volume at the end of the study: day 36, mean ± SEM; for reduction in tumor volume: end of study
[4] = Pharmacokinetic study in mice, plasma PS metabolites by HPLC; assay type: in vivo
[5] = test system: human lung cancer xenografts; conditions: cited from earlier work
[6] = Plasma and tumor drug levels at end of xenograft study; assay type: in vivo, nude mice
lung cancer = conditions: pre-clinical models of lung cancer; cited from earlier work
[7] = PS 200 mg/kg/d, curcumin 500 mg/kg/d
[8] = vs control, PS 200 mg/kg/d, curcumin 500 mg/kg/d
[9] = plasma metabolite after PS 200 mg/kg + curcumin 500 mg/kg in 10% Tween-80
[10] = plasma metabolite after PS 200 mg/kg + curcumin 500 mg/kg in micelles
[11] = plasma metabolite after single oral dose PS 200 mg/kg alone
[12] = curcumin 25 μM co-added with PS

In the case of `COc1ccc2c3c([nH]c2c1)[C@H](CC(C)C)N1C(=O)[C@H](CCC(=O)OC(C)(C)C)NC(=O)[C@@H]1C3` [Ko143], the “increase in the intracellular accumulation of PS by transporter inhibitor” value (“increase … by transporter inhibitor” below) (A549 cells [1]) is reported as “no effect”.
In the case of `CN(C)C(=O)CCSC(SCCC(=O)O)c1cccc(/C=C/c2ccc3ccc(Cl)cc3n2)c1` (stereo not shown) [MK571], the “increase … by transporter inhibitor” value (A549 cells [1]) is reported as 51% and the “enhancement of the cellular accumulation of PS by transporter inhibitor” value (SW480 cells) is reported as 30%.
In the case of `CCOP(=O)(OCC)OCCCCOC(=O)CC1=C(C)/C(=C/c2ccc([S+](C)[O-])cc2)c2ccc(F)cc21` (stereo not shown) [PS, Phospho-sulindac], the “reduction of cell viability” value (A549 cells [2]) is reported as 30%, the “percentage of apoptotic cells” value (A549 cells [3]; PS 80 μM alone or with curcumin 100 μM) is reported as 3.9% and the “percentage of apoptotic cells” value (A549 cells [3]; PS 100 μM alone or with curcumin 100 μM) is reported as 5.0%. The “inhibition of human lung cancer xenografts (abstract, measure not named)” value (A549 xenografts) was 25%, the “adverse effects on the mice during the study” value (A549 xenografts; [7]) was “no apparent adverse effects” and the “body weight at sacrifice” value (A549 xenografts; [7]) was 23 ± 1 g. The “effect on the growth of A549 xenografts (in words)” value (A549 xenografts; [7]) was “did not significantly inhibit”, the “tumor volume at the end of the study” value (A549 xenografts; [7]) was 419±36 mm^3 and the “reduction in tumor volume” value (A549 xenografts; [8]) was 19.6% and 20%. For the same compound, the “reduction in tumor weight” value (A549 xenografts; end-point, vs control, PS 200 mg/kg/d, curcumin 500 mg/kg/d) was 27%, the “intact PS in plasma” value ([4]; any of the three treatments) was “not detected” and the “total plasma AUC0–24 h (sum of all metabolites)” value ([4]; single oral dose PS 200 mg/kg, curcumin 500 mg/kg) was 211 µM·h. The “efficacy as a single agent in the treatment of human lung cancer xenografts” value [5] was “ineffective”.
For `CSc1ccc(/C=C2/C(C)=C(CC(=O)O)c3cc(F)ccc32)cc1` [Sulindac sulfide, sulindac sulfide], the “level in A549 xenografts, PS plus curcumin group vs PS alone group” value (shortened to “level in A549 xenografts … vs PS alone group”) [6] was 3 fold higher.
Work on `CC1=C(CC(=O)O)c2cc(F)ccc2/C1=C\c1ccc(S(C)(=O)=O)cc1` [Sulindac sulfone, sulindac sulfone] yielded a Cmax [4, 9] of 11.7 µM, a Tmax [4, 9] of 4 h and a Cmax [4, 10] of 7.7 µM. The Tmax [4, 10] was 4 h, the Cmax [4, 11] was 5.6 µM and the Tmax [4, 11] was 4 h. For the same compound, the “level in A549 xenografts … vs PS alone group” value [6] was 5 fold higher.
For `CC1=C(CC(=O)O)c2cc(F)ccc2/C1=C\c1ccc([S+](C)[O-])cc1` (stereo not shown) [Sulindac, sulindac, reference compound], the “increase of Cmax vs PS alone” value ([4]; PS co-administered with curcumin in 10% Tween-80) was 70%, the “increase of Cmax vs PS alone” value ([4]; PS co-administered with curcumin in nanoparticles) was 40% and the “level in A549 xenografts … vs PS alone group” value [6] was 1 fold higher.
With `COc1cc(/C=C/C(=O)CC(=O)/C=C/c2ccc(O[C@@H]3O[C@H](C(=O)O)[C@@H](O)[C@H](O)[C@H]3O)c(OC)c2)ccc1O` [curcumin glucuronide] the “detection in A549 xenografts” value [6] was “Neither curcumin, nor its glucuronide, was detected” and the “level in the plasma” value ([6]; curcumin and PS plus curcumin groups) was “minute levels”.
In the case of `COc1cc(/C=C/C(=O)CC(=O)/C=C/c2ccc(O)c(OC)c2)ccc1O` [curcumin, Curcumin, reference compound], the “reduction of cell viability” value (A549 cells [2]) is reported as 4%, the “increase of intracellular levels of PS” value (A549 cells [1]; curcumin 5 μM co-added with PS) is reported as 23% and the “increase of intracellular levels of PS” value (A549 cells [1]; [12]) is reported as 60%. The “increase of uptake of PS” value (SW480 cells; curcumin 5 μM co-added with PS) was 37%, the “increase of uptake of PS” value (SW480 cells; [12]) was 54% and the “inhibition of human lung cancer xenografts (abstract, measure not named)” value (A549 xenografts) was “no effect”. For the same compound, the “adverse effects on the mice during the study” value (A549 xenografts; [7]) was “no apparent adverse effects”, the “body weight at sacrifice” value (A549 xenografts; [7]) was 23 ± 1 g and the “effect on the growth of A549 xenografts (in words)” value (A549 xenografts; [7]) was “did not significantly inhibit”. The “tumor volume at the end of the study” value (A549 xenografts; [7]) was 599±98 mm^3, the “reduction in tumor volume” value (A549 xenografts; [8]) was “no inhibition” and the “efficacy as a single agent” value (lung cancer) was less than 30%.
With `COc1ccc(CCN(C)CCCC(C#N)(c2ccc(OC)c(OC)c2)C(C)C)cc1OC` (stereo not shown) [verapamil] the “increase … by transporter inhibitor” value (A549 cells [1]) was “no effect” and the “enhancement of the cellular accumulation of PS by transporter inhibitor” value (SW480 cells) was 67%.
